Source: patent publication US20260226059A1, “HETEROCYCLIC COMPOUNDS AS PI3Ka INHIBITORS” (Pikavation Therapeutics, Inc., priority 2023, published 2026)

Test system: T47D (PIK3CA H1047R) cells
Assay: PS473 AKT assay in T47D (PIK3CA H1047R) cells
Format: cell-based
Conditions: Homo sapiens, pSer473 AKT, DMEM with 2.5% FBS, compound treatment 2 h, read-out: T47D_IC50
Protocol: T47D (PIK3CA H1047R) cells were cultured using 10-cm petri dishes with recommended medium plus 10% fetal bovine serum. One day before the assay, cells were seeded in 96-well plates. After overnight incubation, the medium was changed to DMEM with 2.5% fetal bovine serum (FBS) and the cells were treated with different concentrations of the compounds for 2 h. Cells were then fixed using 4% paraformaldehyde at room temperature for 20 min. Aspirate 4% paraformaldehyde, and wash cells using 1× regular phosphate buffered saline 3 times, 5 min each. Aspirate any residual phosphate buffered saline and block cells using 10% goat serum containing 1% bovine serum albumin and 0.3% Triton X-100 at room temperature for 1 h. Without any additional washing, primary antibodies (rabbit anti-pSer473 AKT) were diluted using blocking buffer and added at a final volume of 50 microliter per well. Keep assay plates with primary antibodies overnight at 4° C. Wash cells using 1× regular phosphate buffered saline 3 times, 5 min each. After the final wash, incubate cells with horseradish peroxidase-conjugated secondary antibodies (goat Anti-rabbit IgG) diluted using the same blocking buffer at room temperature for 1 h. Wash cells thoroughly using 1× regular phosphate buffered saline 3 times, 5 min each. Aspirate any residual phosphate buffered saline. Add Super-Signal ELISA Pico Chemiluminescent Substrate at a final volume of 100 microliter per well. Read plates on i3x Multi-Mode Microplate Reader and calculate IC50 values using GraphPad Prism software.

CCN1CCn2c1nc1c(C(C)Nc3ccccc3C(=O)O)cc(C)cc1c2=O (centres unmarked) [Example 1, 2-((1-(1-Ethyl-7-methyl-5-oxo-1,2,3,5-tetrahydroimidazo[2,1-b]quinazolin-9-yl)ethyl)amino)benzoic acid]
IC50: 1 to 5 µM

CCN1CCn2c1nc1c(C(C)Nc3ccc(Cl)nc3C(=O)O)cc(C)cc1c2=O (centres unmarked) [Example 2, 6-Chloro-3-((1-(1-ethyl-7-methyl-5-oxo-1,2,3,5-tetrahydroimidazo[2,1-b]quinazolin-9-yl)ethyl)amino)picolinic acid]
IC50: < 1 µM

Cc1cc(C(C)Nc2ccccc2C(=O)O)c2nc3n(c(=O)c2c1)CCc1ccccc1-3 (centres unmarked) [Example 3, 2-((1-(10-Methyl-8-oxo-5,8-dihydro-6H-isoquinolino[1,2-b]quinazolin-12-yl)ethyl)amino)benzoic acid]
IC50: < 1 µM

Cc1cc(C(C)Nc2ccc(C)nc2C(=O)O)c2nc3n(c(=O)c2c1)CCc1ccccc1-3 (centres unmarked) [Example 4, 6-Methyl-3-((1-(10-methyl-8-oxo-5,8-dihydro-6H-isoquinolino[1,2-b]quinazolin-12-yl)ethyl)amino)picolinic acid]
IC50: < 1 µM

Cc1cc(C(C)Nc2ccc(Cl)nc2C(=O)O)c2nc3n(c(=O)c2c1)CCc1ccccc1-3 (centres unmarked) [Example 5, 6-Chloro-3-((1-(10-methyl-8-oxo-5,8-dihydro-6H-isoquinolino[1,2-b]quinazolin-12-yl)ethyl)amino)picolinic acid]
IC50: < 1 µM
